Measured values from patent US9834540B2, “Omeprazole Sodium semihydrate and preparation method thereof” (TIANJIN UNIVERSITY, priority 2015, dated 2017).
Where “and” joins values, the source holds several entries; their conditions need not be identical. Equal entries are not always repeated. Entries after “also recorded” stand apart in the source; their conditions may differ.

Assays:
[1] = prior-art description; cited from earlier work
[2] = DSC analysis, thermal decomposition temperature; assay type: physicochemical; settings: 10° C./min, 25˜300° C.
Experimental: The DSC data is obtained by analysis using a differential scanning calorimetry (DSC1/500, Mettler Toledo Corporation, Switzerland), and the analysis conditions are as follows: adding 10 mg of sample to a 40 μL Aluminum crucible, providing high-purity nitrogen as reaction gas and shield gas with a gas-flow rate of 50 mL/min and 20 mL/min, and raising the temperature at a rate of 10° C./min and a range of 25˜300° C.

male and female rats [3] = test: Reproductive toxicity test; settings: oral 138 mg/kg/day
[4] = Hygroscopicity at 40° C. by dynamic vapor sorption; assay type: physicochemical
[5] = Deposit at 40° C. and relative humidity 75% for 3 days; assay type: physicochemical; settings: relative humidity 75%
Experimental: 0.45 g of Omeprazole Sodium monohydrate, 20 mL of ethyl acetate and 10 mL of s-butanol were added to a crystallizer, and the mixture was stirred at a temperature of 35° C. and a speed of 200 r/min for 2 hours, followed by filtrating and drying to provide 0.42 g of Omeprazole Sodium semihydrate with a mole yield of 95.6% and a HPLC purity of 99.8%. The product had same X-ray powder diffraction pattern as FIG. 1, same solid Fourier transform infrared spectrum as FIG. 2, and DSC decomposition temperature of 227.5° C.

[6] = Thermal stability test at 60° C. (airtight container, 10 days, weighed regularly); assay type: physicochemical; settings: for Change of crystal form / X-ray powder diffraction pattern after deposit at 60° C.: 10 days
male and female rats [7] = settings: rat, in vivo
rats [8] = test: Carcinogenic test in rats within 24 months; assay type: in vivo; settings: 24 months persistently treated
Flowability (carr index) = assay type: physicochemical
[9] = Toxic responses, overall comparison; settings: in words
[10] = Toxic responses test, lethal dose in mice; settings: mouse, in vivo
[11] = Toxic responses test, intravenous lethal dose in rats; settings: rat, in vivo, read-out: intravenous LD50 (median lethal dose)
stomach ECL cells = settings: rat, in vivo
rats [12] = settings: rat, in vivo, 140 mg/kg/day
dogs = settings: dog, in vivo
[13] = listed as Example 1, sodium salt
[14] = listed as Example 2, sodium salt
[15] = listed as Example 3, sodium salt

For `COc1ccc2[nH]c([S+]([O-])Cc3ncc(C)c(OC)c3C)nc2c1` (stereo not drawn) [Omeprazole Sodium hydrate], the “stability (in words)” value [1] is listed as “poor stability”.

For `COc1ccc2[n-]c([S+]([O-])Cc3ncc(C)c(OC)c3C)nc2c1.[Na+]` (stereo not drawn) [Omeprazole Sodium semihydrate], the “thermal decomposition temperature (DSC decomposing exothermic peak)” value (shortened to “thermal decomposition temperature”) [2, 13] was 227.5 °C, the “thermal decomposition temperature” value [2, 14] was 229.2 °C and the “thermal decomposition temperature” value [2, 15] was 229.5 °C. For the same compound, the “thermal decomposition temperature” value ([2]; sodium salt) was 228.5±1 °C and 228.5 °C, the “influence on reproductive performance” value (male and female rats [3]) was “no influence on reproductive performance” and the “hygroscopicity compared with Omeprazole Sodium monohydrate” value ([4]; in words) was “lower hygroscopicity”. The Weight changing rate ([4]; relative humidity 0%) was 0%, the Weight changing rate ([4]; relative humidity 5%) was 0.001% and the Weight changing rate ([4]; relative humidity 10%) was 0.004%. The Weight changing rate ([4]; relative humidity 15%) was 0.01%, the Weight changing rate ([4]; relative humidity 20%) was 0.02% and the Weight changing rate ([4]; relative humidity 25%) was 0.02%. For the same compound, the Weight changing rate ([4]; relative humidity 30%) was 0.03%, the Weight changing rate ([4]; relative humidity 35%) was 0.03% and the Weight changing rate ([4]; relative humidity 40%) was 0.03%. It also gave a Weight changing rate ([4]; relative humidity 45%) of 0.14%, a Weight changing rate ([4]; relative humidity 50%) of 0.17% and a Weight changing rate ([4]; relative humidity 55%) of 0.28%. For the same compound, the Weight changing rate ([4]; relative humidity 60%) was 0.37%, the Weight changing rate ([4]; relative humidity 65%) was 0.45% and the Weight changing rate ([4]; relative humidity 70%) was 0.53%. For the same compound, the Weight changing rate ([4]; relative humidity 75%) was 0.69%, the Weight changing rate [5] was 0.68% and the Weight changing rate ([6]; 0 day) was 0%. For the same compound, the Weight of sample ([6]; 0 day) was 9.5852 g, the Weight changing rate ([6]; 5 day) was 1.1% and the Weight of sample ([6]; 5 day) was 9.4826 g. For the same compound, the Weight of sample ([6]; 10 day) was 9.3790 g, the Weight changing rate ([6]; 10 day, listed as Example 1, sodium salt) was 2.4% and the Weight changing rate ([6]; 10 day, listed as Example 2, sodium salt) was 2.5%. The Weight changing rate ([6]; 10 day, listed as Example 3, sodium salt) was 2.4%, the “Change of crystal form / X-ray powder diffraction pattern after deposit at 60° C.” value [6, 13] was “without making any significant changes in the X-ray powder diffraction pattern” and the “Change of crystal form / X-ray powder diffraction pattern after deposit at 60° C.” value [6, 14] was “without making any significant changes in the X-ray powder diffraction pattern”. For the same compound, the “Change of crystal form / X-ray powder diffraction pattern after deposit at 60° C.” value [6, 15] was “without making any significant changes in the X-ray powder diffraction pattern”, the “Change of crystal form / X-ray powder diffraction pattern after deposit at 60° C.” value ([6]; sodium salt) was “does not make any significant change” and the “reproductive toxicity test result” value (male and female rats [7]) was “negative”. For the same compound, the “carcinogenic test: gastric mucosa finding” value (rats [8]) was “enterochromaffin-like cell hyperplasia in gastric mucosa”, the “carcinogenic test: carcinogenesis / cancer metastasis” value (rats [8]; sodium salt) was “cancer metastasis is not found; also recorded: carcinogenesis occurred without cancer metastasis” and the “drug mutation test result” value (Drug mutation test) was “negative”. It also gave a carr index (Flowability (carr index); [13]) of 14.3%, a carr index (Flowability (carr index); [14]) of 13.9% and a carr index (Flowability (carr index); [15]) of 14.7%. The carr index (Flowability (carr index); sodium salt) was “less than 15%” and the “toxicity compared with existing Omeprazole Sodium or monohydrate” value [9] was “improved toxicity”.

In the case of `COc1ccc2[nH]c([S+]([O-])Cc3ncc(C)c(OC)c3C)nc2c1` (stereo not drawn) [Omeprazole], the LD50 ([10]; mice, intravenous, read-out: Intravenous LD50) is reported as 82.8 mg/kg, the LD50 ([10]; oral, species not restated, follows mice, read-out: oral LD50) is reported as over 2000 mg/kg and the LD50 [11] is reported as 302 mg/kg. For the same compound, the “stomach ECL cell findings in long-term treatment” value (stomach ECL cells) was “cell increase and benign tumour were observed in stomach ECL cells”, the long-term toxicity findings (rats [12]) was “liver and kidney increased in weight without histologic changes” and the “Intravenous LDLo (lowest published lethal dose)” value (dogs) was 500 mg/kg.
